Assay results reported in US20250019374A1, “PROTEIN TYROSINE PHOSPHATASE INHIBITORS AND METHODS OF USE THEREOF” (Calico Life Sciences LLC, priority 2021, published 2025).
Like-named read-outs stand apart in the source and are kept apart here.

Tests used:
[1] = target: His tagged full-length PTPN1 protein (Homo sapiens (Human), UniProt P18031); assay: PTPN1 Mobility Shift Assay (MSA); format: biochemical; details: enzyme 0.5 nM, substrate 2 μM
Summary of the method: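 Enzyme at 0.5 nM was preincubated with compound (12-point, 1:3 dilution) for 10 min at room temperature in pH 7.5 HEPES buffer with EDTA, EGTA and DTT. OG488-labelled phosphorylated insulin-receptor peptide at 2 µM was then added for 10 min. After quench, % substrate dephosphorylation was read by mobility shift, and IC50 came from % inhibition.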

[2] = tested on: IFNγ-induced STAT1 phosphorylation (pSTAT1) in B16F10 cells; assay: B16F10 Phospho-STAT1 HTRF proximal pharmacodynamic (PD) assay; format: cell-based, murine; details: for EC50: B16-F10, B16F10 cells; for Dihydrobenzofuran or Indoline x-fold>potency cellular: x-fold versus corresponding chromane comparator, B16F10 pSTAT1
Summary of the method: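 B16F10 cells in phenol red-free DMEM/10% FBS were dosed for 3 h at 37 °C in a 10-point, 3-fold series from 50 μM, then stimulated with 100 nM mouse IFNγ for 10 min and stopped with 3.3 μM staurosporine. pSTAT1 in lysates was measured by HTRF (665 nm emission), and EC50s were fitted from dose-response curves.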

[3] = target: His tagged PTPN2 (TC45) protein (Homo sapiens (Human), UniProt P17706); assay: PTPN2 Mobility Shift Assay (MSA); format: biochemical; details: for Dihydrobenzofuran or Indoline x-fold>potency biochemical: x-fold versus corresponding chromane comparator, PTPN2 MSA
Summary of the method: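 His-tagged human PTPN2 (TC45), 0.5 nM, preincubated with compound (12-point, 1:3) 10 min at room temperature in HEPES pH 7.5 buffer with EDTA, EGTA, DTT. Dephosphorylation of 2 μM fluorescent phospho-insulin-receptor peptide over 10 min read by mobility shift; IC50 from % inhibition.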

[4] = 3 hours compound, 100 nM mouse IFNγ 10 minutes, read-out: B16F10 IFNγ Induced pSTAT1 EC50
[5] = Mus musculus, Table 3, dihydrobenzofuran or indoline compound (X = O or NH), read-out: pSTAT1 EC50
[6] = Table 3, dihydrobenzofuran or indoline compound (X = O or NH)

Sequence of His tagged PTPN2 (TC45) protein (P17706 other isoform, or with tags, fused parts or gaps): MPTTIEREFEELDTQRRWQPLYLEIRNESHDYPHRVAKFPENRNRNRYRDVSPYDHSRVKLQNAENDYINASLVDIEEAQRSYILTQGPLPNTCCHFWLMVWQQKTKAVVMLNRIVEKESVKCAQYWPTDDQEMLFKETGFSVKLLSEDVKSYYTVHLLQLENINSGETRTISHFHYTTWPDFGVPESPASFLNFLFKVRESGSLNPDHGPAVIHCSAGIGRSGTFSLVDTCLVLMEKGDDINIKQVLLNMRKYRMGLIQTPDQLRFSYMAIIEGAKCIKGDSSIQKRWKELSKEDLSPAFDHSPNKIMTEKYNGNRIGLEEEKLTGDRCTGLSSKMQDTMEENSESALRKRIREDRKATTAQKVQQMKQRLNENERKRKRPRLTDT
Sequence of His tagged full-length PTPN1 protein (P18031 whole entry): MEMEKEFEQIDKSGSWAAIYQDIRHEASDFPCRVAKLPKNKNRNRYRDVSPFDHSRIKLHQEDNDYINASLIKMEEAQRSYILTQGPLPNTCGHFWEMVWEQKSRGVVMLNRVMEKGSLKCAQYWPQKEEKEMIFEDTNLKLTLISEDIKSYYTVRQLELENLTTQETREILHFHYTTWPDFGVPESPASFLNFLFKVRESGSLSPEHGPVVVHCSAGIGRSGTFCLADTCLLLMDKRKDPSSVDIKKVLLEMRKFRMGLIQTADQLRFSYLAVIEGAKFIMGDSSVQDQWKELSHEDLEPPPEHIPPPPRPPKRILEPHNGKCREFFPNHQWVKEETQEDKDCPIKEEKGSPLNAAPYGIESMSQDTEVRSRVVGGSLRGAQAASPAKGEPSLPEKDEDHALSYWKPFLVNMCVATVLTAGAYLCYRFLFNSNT

Row | SMILES | IC50 [1] [nM] | EC50 [2, 4] [nM] | EC50 [2, 5] [nM] | Dihydrobenzofuran or Indoline x-fold>potency cellular [2] | IC50 [3, 6] [nM] | IC50 ([3]; enzyme 0.5 nM, substrate 2 μM) [nM] | Dihydrobenzofuran or Indoline x-fold>potency biochemical [3]
1 | O=C1CN(c2c(O)cc3c(c2F)C[C@H](CNCC2CCOCC2)N3)S(=O)(=O)N1 [Compound 138, 5-[(2R)-4-fluoro-6-hydroxy-2-({[(oxan-4-yl)methyl]amino}methyl)-2,3-dihydro-1H-indol-5-yl]-1λ^6,2,5-thiadiazolidine-1,1,3-trione] | 10 to 100 | 1560 | 156000 | 20.6 | 21.6 | 10 to 100 | 0.8
2 | O=C1CN(c2c(O)cc3c(c2F)C[C@H](CNCCC(F)F)N3)S(=O)(=O)N1 [Compound 140, 5-[(2R)-2-{[(3,3-difluoropropyl)amino]methyl}-4-fluoro-6-hydroxy-2,3-dihydro-1H-indol-5-yl]-1λ^6,2,5-thiadiazolidine-1,1,3-trione] | 10 to 100 | 701 | 701 | 5.1 | 15.2 | 10 to 100 | 0.6
3 | CCC(C)CNC[C@H]1Cc2c(cc(O)c(N3CC(=O)NS3(=O)=O)c2F)N1 (stereo partly drawn) [Compound 142, 5-[(2R)-4-fluoro-6-hydroxy-2-{[(2-methylbutyl)amino]methyl}-2,3-dihydro-1H-indol-5-yl]-1λ^6,2,5-thiadiazolidine-1,1,3-trione] | 10 to 100 | 1140 | – | – | – | 10 to 100 | –
4 | O=C1CN(c2c(O)cc3c(c2F)CC(CNCCC2COC2)N3)S(=O)(=O)N1 (stereo not drawn) [Compound 144, 5-[4-fluoro-6-hydroxy-2-({[2-(oxetan-3-yl)ethyl]amino}methyl)-2,3-dihydro-1H-indol-5-yl]-1λ^6,2,5-thiadiazolidine-1,1,3-trione] | > 100 | 7180 | – | – | – | 10 to 100 | –
5 | CCCC(C)NC[C@H]1Cc2c(cc(O)c(N3CC(=O)NS3(=O)=O)c2F)N1 (stereo partly drawn) [Compound 148, 5-[(2R)-4-fluoro-6-hydroxy-2-{[(pentan-2-yl)amino]methyl}-2,3-dihydro-1H-indol-5-yl]-1λ^6,2,5-thiadiazolidine-1,1,3-trione] | 10 to 100 | 1850 | – | – | – | < 10 | –
6 | CCCCNC[C@H]1Cc2c(cc(O)c(N3CC(=O)NS3(=O)=O)c2F)N1 [Compound 150, 5-{(2R)-2-[(butylamino)methyl]-4-fluoro-6-hydroxy-2,3-dihydro-1H-indol-5-yl}-1λ^6,2,5-thiadiazolidine-1,1,3-trione] | 10 to 100 | 2180 | – | – | – | 10 to 100 | –
7 | O=C1CN(c2c(O)cc3c(c2F)C[C@H](CO)N3)S(=O)(=O)N1 [Compound 151, 5-[(2R)-4-fluoro-6-hydroxy-2-(hydroxymethyl)-2,3-dihydro-1H-indol-5-yl]-1λ^6,2,5-thiadiazolidine-1,1,3-trione] | 10 to 100 | 2770 | – | – | – | 10 to 100 | –
8 | O=C1CN(c2c(O)cc3c(c2F)C[C@H](CNCCC2CC2)N3)S(=O)(=O)N1 [Compound 152, 5-[(2R)-2-{[(2-cyclopropylethyl)amino]methyl}-4-fluoro-6-hydroxy-2,3-dihydro-1H-indol-5-yl]-1λ^6,2,5-thiadiazolidine-1,1,3-trione] | 10 to 100 | 1170 | – | – | – | 10 to 100 | –
9 | CC(C)CN(C)C[C@H]1Cc2c(cc(O)c(N3CC(=O)NS3(=O)=O)c2F)N1 [Compound 155, 5-[(2R)-4-fluoro-6-hydroxy-2-{[methyl(2-methylpropyl)amino]methyl}-2,3-dihydro-1H-indol-5-yl]-1λ^6,2,5-thiadiazolidine-1,1,3-trione] | 10 to 100 | 15700 | – | – | – | 10 to 100 | –

Second part, led by results:

Row | IC50 [1] [nM] | EC50 [2, 4] [nM] | EC50 [2, 5] [nM] | SMILES | Dihydrobenzofuran or Indoline x-fold>potency cellular [2] | IC50 [3, 6] [nM] | IC50 ([3]; enzyme 0.5 nM, substrate 2 μM) [nM] | Dihydrobenzofuran or Indoline x-fold>potency biochemical [3]
10 | 10 to 100 | 1560 | 1560 | CC(C)CCNC[C@H]1Cc2c(cc(O)c(N3CC(=O)NS3(=O)=O)c2F)N1 [Compound 139, 5-[(2R)-4-fluoro-6-hydroxy-2-{[(3-methylbutyl)amino]methyl}-2,3-dihydro-1H-indol-5-yl]-1λ^6,2,5-thiadiazolidine-1,1,3-trione] | 4.5 | 19.8 | 10 to 100 | 0.8
11 | 10 to 100 | 704 | – | O=C1CN(c2c(O)cc3c(c2F)C[C@H](CNCCC(F)(F)F)N3)S(=O)(=O)N1 [Compound 141, 5-[(2R)-4-fluoro-6-hydroxy-2-{[(3,3,3-trifluoropropyl)amino]methyl}-2,3-dihydro-1H-indol-5-yl]-1λ^6,2,5-thiadiazolidine-1,1,3-trione] | – | – | 10 to 100 | –
12 | 10 to 100 | 1000 | – | O=C1CN(c2c(O)cc3c(c2F)C[C@H](CNCC2CC(F)(F)C2)N3)S(=O)(=O)N1 [Compound 143, 5-[(2R)-2-({[(3,3-difluorocyclobutyl)methyl]amino}methyl)-4-fluoro-6-hydroxy-2,3-dihydro-1H-indol-5-yl]-1λ^6,2,5-thiadiazolidine-1,1,3-trione] | – | – | 10 to 100 | –
13 | 10 to 100 | 1970 | – | O=C1CN(c2c(O)cc3c(c2F)CC(CNCCCC(F)F)N3)S(=O)(=O)N1 (stereo not drawn) [Compound 145, 5-(2-{[(4,4-difluorobutyl)amino]methyl}-4-fluoro-6-hydroxy-2,3-dihydro-1H-indol-5-yl)-1λ^6,2,5-thiadiazolidine-1,1,3-trione] | – | – | 10 to 100 | –
14 | 10 to 100 | 1830 | – | O=C1CN(c2c(O)cc3c(c2F)C[C@H](CNCC2CCCC2)N3)S(=O)(=O)N1 [Compound 146, 5-[(2R)-2-{[(cyclopentylmethyl)amino]methyl}-4-fluoro-6-hydroxy-2,3-dihydro-1H-indol-5-yl]-1λ^6,2,5-thiadiazolidine-1,1,3-trione] | – | – | 10 to 100 | –
15 | 10 to 100 | 1840 | – | O=C1CN(c2c(O)cc3c(c2F)C[C@H](CNCC2CC2)N3)S(=O)(=O)N1 [Compound 147, 5-[(2R)-2-{[(cyclopropylmethyl)amino]methyl}-4-fluoro-6-hydroxy-2,3-dihydro-1H-indol-5-yl]-1λ^6,2,5-thiadiazolidine-1,1,3-trione] | – | – | 10 to 100 | –
16 | 10 to 100 | 1560 | – | CC[C@@H](C)NC[C@H]1Cc2c(cc(O)c(N3CC(=O)NS3(=O)=O)c2F)N1 [Compound 149, 5-[(2R)-2-({[(2R)-butan-2-yl]amino}methyl)-4-fluoro-6-hydroxy-2,3-dihydro-1H-indol-5-yl]-1λ^6,2,5-thiadiazolidine-1,1,3-trione] | – | – | < 10 | –
17 | 10 to 100 | 2010 | – | CC(C)(C)CCNC[C@H]1Cc2c(cc(O)c(N3CC(=O)NS3(=O)=O)c2F)N1 [Compound 153, 5-[(2R)-2-{[(3,3-dimethylbutyl)amino]methyl}-4-fluoro-6-hydroxy-2,3-dihydro-1H-indol-5-yl]-1λ^6,2,5-thiadiazolidine-1,1,3-trione] | – | – | 10 to 100 | –
18 | 10 to 100 | 1880 | – | CC(C)C1CC(CNC[C@H]2Cc3c(cc(O)c(N4CC(=O)NS4(=O)=O)c3F)N2)C1 (stereo partly drawn) [Compound 154, 5-{(2R)-4-fluoro-6-hydroxy-2-[({[3-(propan-2-yl)cyclobutyl]methyl}amino)methyl]-2,3-dihydro-1H-indol-5-yl}-1λ^6,2,5-thiadiazolidine-1,1,3-trione] | – | – | < 10 | –
